Data: ChEMBL document CHEMBL3885861, “Open TG-GATES”

Organism: Rattus norvegicus
Assay: Open TG-GATES - Regimen: Single
Type: toxicity, organism-based, Sprague-Dawley
Parameters: regimen Single, gender Male, age 6 weeks
Details: in vivo, po, 100 mg/kg, route gavage, dose level Low; for APTT / Bas / Eos / Fbg / Hb / Ht / Lym / MCH / MCHC / MCV / Mono / Neu / PT / Plat / RBC / Ret / WBC: tissue Blood; for KIDNEY_L / KIDNEY_R / KIDNEY_TOTAL: tissue Kidney; for LIVER: tissue Liver; for ALP / ALT / AST / CRE / DBIL / GLC / IP / K / LDH / Na / PL / RALB / TBIL / TC / TP / gamma-GTP: tissue Plasma

`Clc1ccccc1CN1CCc2sccc2C1` [TICLOPIDINE] showed a TERMINAL_BW (3 h) of 210.7 g, an APTT (3 h) of 19.6 s and a Bas (3 h) of 0.2%. It also gave an Eos (3 h) of 0.8%, a Fbg (3 h) of 226.4 mg/dL and a Hb (3 h) of 13.4 g/dL. The Ht (3 h) was 38.3%, the Lym (3 h) was 78.6% and the MCH (3 h) was 21.4 pg. It also gave an MCHC (3 h) of 35%, an MCV (3 h) of 61.1 fL and a Mono (3 h) of 2.8%. The Neu (3 h) was 16.6%, the PT (3 h) was 12.2 s and the Plat (3 h) was 117.9 x10_4/uL. The RBC (3 h) was 628 x10_4/ul, the Ret (3 h) was 8.1% and the WBC (3 h) was 70.6 x10_2/uL. It also gave a KIDNEY_L (3 h) of 1 g, a KIDNEY_R (3 h) of 1 g and a KIDNEY_TOTAL (3 h) of 2 g. It also gave an LIVER (3 h) of 9 g, an ALP (3 h) of 1125 IU/L and an ALT (3 h) of 35 IU/L. The AST (3 h) was 71 IU/L, the CRE (3 h) was 0.4 mg/dL and the DBIL (3 h) was 0.076 mg/dL. For the same molecule, the GLC (3 h) was 200.6 mg/dL, the IP (3 h) was 10.6 mg/dL and the K (3 h) was 3.9 meq/L. It also gave an LDH (3 h) of 155.4 IU/L, a Na (3 h) of 141.4 meq/L and a PL (3 h) of 132.2 mg/dL. It also gave an RALB (3 h) of 3.3 g/dL, a TBIL (3 h) of 0.1 mg/dL and a TC (3 h) of 70.2 mg/dL. It also gave a TP (3 h) of 5.5 g/dL, a gamma-GTP (3 h) of 0.8 IU/L and a TERMINAL_BW (6 h) of 209.6 g. For the same molecule, the APTT (6 h) was 18.1 s, the Bas (6 h) was 0.4% and the Eos (6 h) was 1%. The Fbg (6 h) was 231.6 mg/dL, the Hb (6 h) was 13.4 g/dL and the Ht (6 h) was 37.9%. It also gave a Lym (6 h) of 76%, an MCH (6 h) of 20.8 pg and an MCHC (6 h) of 35.3%. The MCV (6 h) was 58.9 fL, the Mono (6 h) was 2.8% and the Neu (6 h) was 19.2%. For the same molecule, the PT (6 h) was 12.3 s, the Plat (6 h) was 130.4 x10_4/uL and the RBC (6 h) was 643.6 x10_4/ul. For the same molecule, the Ret (6 h) was 7.9%, the WBC (6 h) was 75.4 x10_2/uL and the KIDNEY_L (6 h) was 0.9 g. It also gave a KIDNEY_R (6 h) of 0.9 g, a KIDNEY_TOTAL (6 h) of 1.8 g and an LIVER (6 h) of 8.7 g. For the same molecule, the ALP (6 h) was 940.2 IU/L, the ALT (6 h) was 31.6 IU/L and the AST (6 h) was 68.4 IU/L. It also gave a CRE (6 h) of 0.4 mg/dL, a DBIL (6 h) of 0.08 mg/dL and a GLC (6 h) of 189 mg/dL. The IP (6 h) was 10.1 mg/dL, the K (6 h) was 3.9 meq/L and the LDH (6 h) was 212 IU/L. For the same molecule, the Na (6 h) was 141.4 meq/L, the PL (6 h) was 137.2 mg/dL and the RALB (6 h) was 3.4 g/dL. For the same molecule, the TBIL (6 h) was 0.1 mg/dL, the TC (6 h) was 77.8 mg/dL and the TP (6 h) was 5.5 g/dL. For the same molecule, the gamma-GTP (6 h) was 0.8 IU/L, the TERMINAL_BW (9 h) was 208 g and the APTT (9 h) was 17.3 s. For the same molecule, the Bas (9 h) was 0.2%, the Eos (9 h) was 0.6% and the Fbg (9 h) was 226.6 mg/dL. For the same molecule, the Hb (9 h) was 13.3 g/dL, the Ht (9 h) was 37.5% and the Lym (9 h) was 74.6%. For the same molecule, the MCH (9 h) was 21.4 pg, the MCHC (9 h) was 35.4% and the MCV (9 h) was 60.5 fL. It also gave a Mono (9 h) of 2.8%, a Neu (9 h) of 20.6% and a PT (9 h) of 12.7 s. For the same molecule, the Plat (9 h) was 123.9 x10_4/uL, the RBC (9 h) was 621.6 x10_4/ul and the Ret (9 h) was 7.5%. It also gave a WBC (9 h) of 81 x10_2/uL, a KIDNEY_L (9 h) of 0.9 g and a KIDNEY_R (9 h) of 0.9 g. For the same molecule, the KIDNEY_TOTAL (9 h) was 1.9 g, the LIVER (9 h) was 8.3 g and the ALP (9 h) was 955 IU/L. For the same molecule, the ALT (9 h) was 29.6 IU/L, the AST (9 h) was 69.8 IU/L and the CRE (9 h) was 0.4 mg/dL. The DBIL (9 h) was 0.082 mg/dL, the GLC (9 h) was 199.8 mg/dL and the IP (9 h) was 10 mg/dL. It also gave a K (9 h) of 3.8 meq/L, an LDH (9 h) of 151.2 IU/L and a Na (9 h) of 142.6 meq/L. For the same molecule, the PL (9 h) was 141.6 mg/dL, the RALB (9 h) was 3.4 g/dL and the TBIL (9 h) was 0.1 mg/dL. It also gave a TC (9 h) of 77.6 mg/dL, a TP (9 h) of 5.4 g/dL and a gamma-GTP (9 h) of 1.4 IU/L. It also gave a TERMINAL_BW (24 h) of 219.8 g, an APTT (24 h) of 21.2 s and a Bas (24 h) of 1%. The Eos (24 h) was 1%, the Fbg (24 h) was 222 mg/dL and the Hb (24 h) was 13.6 g/dL. It also gave a Ht (24 h) of 38.3%, a Lym (24 h) of 77.8% and an MCH (24 h) of 21.7 pg. It also gave an MCHC (24 h) of 35.5%, an MCV (24 h) of 61.3 fL and a Mono (24 h) of 2.8%. For the same molecule, the Neu (24 h) was 16.8%, the PT (24 h) was 12 s and the Plat (24 h) was 124.9 x10_4/uL. For the same molecule, the RBC (24 h) was 624.4 x10_4/ul, the Ret (24 h) was 6.3% and the WBC (24 h) was 116 x10_2/uL. It also gave a KIDNEY_L (24 h) of 1 g, a KIDNEY_R (24 h) of 1 g and a KIDNEY_TOTAL (24 h) of 2 g. It also gave an LIVER (24 h) of 10.1 g, an ALP (24 h) of 1052.4 IU/L and an ALT (24 h) of 37.8 IU/L. It also gave an AST (24 h) of 70.2 IU/L, a CRE (24 h) of 0.4 mg/dL and a DBIL (24 h) of 0.072 mg/dL. For the same molecule, the GLC (24 h) was 188.6 mg/dL, the IP (24 h) was 8.1 mg/dL and the K (24 h) was 4.1 meq/L. For the same molecule, the LDH (24 h) was 141.4 IU/L, the Na (24 h) was 141.6 meq/L and the PL (24 h) was 136.4 mg/dL. For the same molecule, the RALB (24 h) was 3.4 g/dL, the TBIL (24 h) was 0.1 mg/dL and the TC (24 h) was 72.2 mg/dL. It also gave a TP (24 h) of 5.5 g/dL and a gamma-GTP (24 h) of 1 IU/L.
